Entries after “also recorded” stand apart in the source; their conditions may differ.
How the values were obtained:
[1] = tested on: hrpA promoter (T3SS); experiment: hrpA promoter-probe phrpA in Erwinia amylovora 273, flow cytometry; format: cell-based; conditions: Ea273 (phrpA), HIM + 100 μM compound
Method: Wild-type Erwinia amylovora 273 was used in this study. The promoter-probe plasmid phrpA was constructed as follows. The hrpA promoter region of Erwinia amylovora 273 was amplified and cloned into pPROBE-NT to produce PhrpA. Plasmid PhrpA was electroporated into Erwinia amylovora 273. Expression of hrpA was analyzed using a FACS Calibur flow cytometer (BD Biosciences, CA). Wild-type Erwinia amylovora 273 containing phrpA was cultured in a hrp-inducing medium (HIM) containing dimethyl sulfoxide (DMSO; solvent of chemical compounds), or HIM supplemented with 100 μM of each compound, and promoter activity was assessed at 6 h and 9 h by measuring GFP intensity using flow cytometry (Table 19).

[2] = tested on: hrpA promoter (T3SS); experiment: GFP reporter plasmid phrpA, flow cytometry (FACS) of hrpA promoter activity; format: cell-based, Dickeya dadantii 3937; conditions: for mean fluorescence intensity of GFP, hrpA expression: D. dadantii 3937 (phrpA), MM + 100 μM compound; for inhibitory activity on T3SS gene (hrpA) expression, in words: D. dadantii 3937, reporter plasmid phrpA, 100 μM; for minimal effective concentration: Dickeya dadantii, read-out: minimal inhibitory concentration on hrpA expression (concentration showing inhibitory effect)
Method: FACS analysis of promoter activity of dspE, hrpA, hrpL, hrpN, and hrpS was carried out as described (Peng et al., 2006). Briefly, the wild-type Ech3937 and the mutant strains carrying the promoter reporter plasmid were grown on LB broth at 28° C. overnight and transferred to appropriate media. For FACS analysis, samples were collected by centrifugation, washed with 1× phosphate buffer saline (PBS) at 13,000 rpm for 1 min, and re-suspended in 1×PBS to ca 10^6 CFU/ml prior to being run in a FACS Calibur flow cytometer (BD Biosciences, CA). Three replicates were performed for each treatment.
To identify potential compounds that repress activation of T3SS, analogs and isomers of TCA and intermediates of salicylic acid and phenypropanoid biosynthesis pathways in plants were further screened for their effect on Ech3937 hrpA expression by flow cytometry (Table 9). A green fluorescent protein (GFP) reporter plasmid phrpA (pProbe-AT derivative with PCR fragment containing hrpA promoter region) was constructed, resulting in a transcriptional fusion of hrpA promoter with GFP gene. Bacterial cells containing phrpA plasmid were grown in MM supplemented with 0.1 mM of each compound. GFP intensity, which is a measurement of hrpA promoter activity, was measured by flow cytometry.
hrpA encodes the T3SS pilus required for protein translocation into plant cells. To test for an inhibitory effect on T3SS hrpA expression, the reporter plasmid phrpA was used to measure the effects of these compounds on hrpA expression. The reporter plasmid phrpA encodes a transcriptional fusion of the hrpA promoter controlling expression of green fluorescent protein (gfp). 50 μL of bacterial suspension of D. dadantii 3937 carrying the hrpA reporter (optical density at 600 nm OD600=1.0) was used as the initial inoculum and added to 5 mL of MM or MM supplemented with 100 μM of one of the compounds. The expression level of hrpA of these bacterial cells was measured by measuring GFP intensity of gated populations of the bacterial cells by flow cytometry and analyzed with Cell Quest software (BD Biosciences, San Jose, Calif.). The fluorescence intensities were an average GFP fluorescence intensity of total bacterial cells. Compounds were assayed two different times (12 and 24 h of bacterial growth) with T3SS minimal media (MM) as the control treatment for each set of experiment. Values presented in Table 14 are mean fluorescence intensity of GFP, representative of two experiments, presented as the average of three replicates with standard deviation (SD).

| Compound | Avg MFI ± SD, hrpA expression ([1]; 6 h) | Avg MFI ± SD, hrpA expression ([1]; 9 h) | mean fluorescence intensity of GFP, hrpA expression ([2]; 12 h) | mean fluorescence intensity of GFP, hrpA expression ([2]; 24 h) | inhibitory activity on T3SS gene (hrpA) expression, in words [2] | minimal effective concentration [2] | Mean Fluorescence Intensity of GFP (hrpA, phrpA) ([2]; Trial 2, MM supplemented with compound at 100 μM) |
| --- | --- | --- | --- | --- | --- | --- | --- |
| O=C1c2ccccc2C(=O)N1C/C=C/c1ccc(O)cc1 [Compound 116, N-(para-Coumaryl)phthalimide] | 889.1 ± 61.8 | 1466.4 ± 17.8 | 24.3 ± 1.5 | 39.3 ± 3.5 | showed inhibitory effect; also recorded: moderated inhibitory activity | 100 µM | 27.0 ± 2.1 |
| O=P(O)(O)/C=C/c1ccc(O)cc1 [Compound 115, trans-2-(4-Hydroxyphenyl)-vinylphosphonic acid] | 442.4 ± 2.3 | 553.3 ± 32.7 | 57.9 ± 1.6 | 79.6 ± 3.3 | did not exhibit any activity | – | – |
| CN(C)c1ccc(/C=C/C(=O)O)cc1 [Compound 112, trans-4-Dimethylaminocinnamic acid] | 87.0 ± 4.0 | 37.3 ± 3.7 | 23.8 ± 4.3 | 60.7 ± 6.4 | – | – | – |
| O=C(O)/C=C/c1ccc(C(F)(F)F)cc1 [Compound 113, trans-4-Trifluoromethylcinnamic acid] | 84.2 ± 7.5 | 97.4 ± 23.6 | 24.4 ± 0.9 | 68.5 ± 5.7 | inactive | 100 µM | – |
| O=C(O)/C=C/c1ccc(F)cc1 [Compound 110, trans-4-Fluorocinnamic acid] | 279.2 ± 5.3 | 152.4 ± 0.7 | 63.4 ± 8.0 | 183.8 ± 19.2 | inactive | – | – |
| COc1ccc([C@@H]2C[C@H]2C(=O)O)cc1 (relative stereo) [Compound 105, trans-2-(4-Methoxyphenyl)-1-cyclopropanecarboxylic acid] | 345.3 ± 11.9 | 200.2 ± 11.0 | 22.9 ± 2.6 | 82.4 ± 5.8 | – | 100 µM | – |
| CCOS(=O)(=O)/C=C/c1ccc(OC)cc1 [Compound 120, Ethyl trans-2-(4-methoxyphenyl)-ethenylsulfonate] | 371.5 ± 29.7 | 492.0 ± 37.6 | 49.9 ± 2.6 | 68.6 ± 6.0 | did not exhibit any activity | – | – |
| CCOC(=O)[C@@H]1C[C@H]1c1ccc(OC)cc1 (relative stereo) [Compound 100, Ethyl trans-2-(4-methoxyphenyl)-1-cyclopropanecarboxylate] | 447.8 ± 20.2 | 594.6 ± 3.5 | 45.3 ± 3.4 | 119.1 ± 22.1 | – | – | – |
| COc1ccc(/C=C/CN2C(=O)c3ccccc3C2=O)cc1 [Compound 118, N-(4-Methoxycinnamyl)phthalimide] | 361.3 ± 28.6 | 520.4 ± 16.2 | 59.0 ± 0.4 | 83.8 ± 1.7 | – | – | – |
